# Results reported in patent publication US20190322676A1, “CERAMIDE GALACTOSYLTRANSFERASE INHIBITORS FOR THE TREATMENT OF DISEASE” (BioMarin Pharmaceutical Inc., priority 2016, published 2019).
# Structures can show the parent of a compound that is named as a salt.
# Target: T1, human CGT (ceramide galactosyltransferase), CHO/CGT lysate (Homo sapiens, UniProt Q16880)
# T1 construct: Full-length human CGT cDNA was cloned into the BamH1/Xho1 site of pcDNA3.1 (+); expressed in transfected cells; host or cells: Chinese hamster ovary (CHO) cells; lysate prepared with M-PER
# T1 sequence (Q16880 21-541): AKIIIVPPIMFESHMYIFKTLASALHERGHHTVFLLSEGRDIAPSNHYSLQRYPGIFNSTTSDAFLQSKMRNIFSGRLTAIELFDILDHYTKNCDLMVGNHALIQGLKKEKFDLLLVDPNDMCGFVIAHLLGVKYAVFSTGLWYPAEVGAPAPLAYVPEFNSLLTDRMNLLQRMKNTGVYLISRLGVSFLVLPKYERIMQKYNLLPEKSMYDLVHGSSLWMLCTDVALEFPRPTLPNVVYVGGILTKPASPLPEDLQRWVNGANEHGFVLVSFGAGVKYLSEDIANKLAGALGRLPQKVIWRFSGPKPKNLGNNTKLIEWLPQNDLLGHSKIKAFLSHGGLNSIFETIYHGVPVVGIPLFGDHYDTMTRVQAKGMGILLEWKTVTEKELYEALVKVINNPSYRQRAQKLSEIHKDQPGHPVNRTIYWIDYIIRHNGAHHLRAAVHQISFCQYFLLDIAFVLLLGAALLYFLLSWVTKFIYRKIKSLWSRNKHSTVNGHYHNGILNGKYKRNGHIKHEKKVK
# Assay: CGT enzyme assay, RapidFire/MS/MS readout (Table 1 ranges with one asterisk *)
# Assay type: biochemical
# Settings: RapidFire method (range with one asterisk *)
# Procedure, shortened: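 IC50s come from variable-slope dose-response fits of internal-standard-normalized C6-NBD-dihydro-galactosylceramide, measured by RapidFire/MS/MS (ESI negative). Reactions: 1 h, 37 °C, human CGT-expressing CHO lysate (4 μg), 0.001–50 μM compound, 10 μM NBD-dihydro-ceramide, 17.5 μM UDP-galactose, 0.5% DMSO, pH 7.2; 0.01% Tween 80 added for ** values.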
row,SMILES,IC50 [µM]
1,"NC1CCN(C(=O)[C@H](NS(=O)(=O)c2ccc3cc(OC4CCCC4)ccc3c2)C(F)(F)c2cccc(Oc3ccccc3)c2)CC1 [Compound 108-2, (S)—N-(3-(4-aminopiperidin-1-yl)-1,1-difluoro-3-oxo-1-(3-phenoxyphenyl)propan-2-yl)-6-(cyclopentyloxy)naphthalene-2-sulfonamide]",1 to 10
2,"NC1CCN(C(=O)[C@@H](NS(=O)(=O)c2ccc(OCC3CCCCC3)cc2)C(F)(F)c2cccc(Oc3ccccc3)c2)CC1 [Compound 109-1, (R)—N-(3-(4-aminopiperidin-1-yl)-1,1-difluoro-3-oxo-1-(3-phenoxyphenyl)propan-2-yl)-4-(cyclohexylmethoxy)benzenesulfonamide trifluoroacetate]",1 to 10
3,"NC1CCN(C(=O)[C@H](NS(=O)(=O)c2ccc(OCC3CCCCC3)cc2)C(F)(F)c2cccc(Oc3ccccc3)c2)CC1 [Compound 109-2, (S)—N-(3-(4-aminopiperidin-1-yl)-1,1-difluoro-3-oxo-1-(3-phenoxyphenyl)propan-2-yl)-4-(cyclohexylmethoxy) benzenesulfonamide trifluoroacetate]",1 to 10
4,"CN([C@H](C(=O)N1C2CCC1CC(N)C2)C(F)(F)c1ccc(O)cc1)S(=O)(=O)c1ccc2cc(OC3CCCC3)ccc2c1 (stereo partly drawn) [Compound 110-1, N-((2R)-3-(3-amino-8-azabicyclo[3.2.1]octan-8-yl)-1,1-difluoro-1-(4-hydroxyphenyl)-3-oxopropan-2-yl)-6-(cyclopentyloxy)-N-methylnaphthalene-2-sulfonamide trifluoroacetate]",1 to 10
5,"CN([C@@H](C(=O)N1C2CCC1CC(N)C2)C(F)(F)c1ccc(O)cc1)S(=O)(=O)c1ccc2cc(OC3CCCC3)ccc2c1 (stereo partly drawn) [Compound 110-2, N-((2S)-3-(3-amino-8-azabicyclo[3.2.1]octan-8-yl)-1,1-difluoro-1-(4-hydroxyphenyl)-3-oxopropan-2-yl)-6-(cyclopentyloxy)-N-methylnaphthalene-2-sulfonamide trifluoroacetate]",30 to 100
6,"CN([C@H](C(=O)N1C2CCC1CC(N)C2)C(F)(F)c1cccc(Oc2ccccc2)c1)S(=O)(=O)c1ccc2cc(OC3CCCC3)ccc2c1 (stereo partly drawn) [Compound 111-1, N-((2R)-3-(3-amino-8-azabicyclo[3.2.1]octan-8-yl)-1,1-difluoro-3-oxo-1-(3-phenoxyphenyl)propan-2-yl)-6-(cyclopentyloxy)-N-methylnaphthalene-2-sulfonamide trifluoroacetate]",< 1
7,"CN([C@@H](C(=O)N1C2CCC1CC(N)C2)C(F)(F)c1cccc(Oc2ccccc2)c1)S(=O)(=O)c1ccc2cc(OC3CCCC3)ccc2c1 (stereo partly drawn) [Compound 111-2, N-((2S)-3-(3-amino-8-azabicyclo[3.2.1]octan-8-yl)-1,1-difluoro-3-oxo-1-(3-phenoxyphenyl)propan-2-yl)-6-(cyclopentyloxy)-N-methylnaphthalene-2-sulfonamide trifluoroacetate]",10 to 30
8,"NC1CCN(C(=O)[C@@H](NS(=O)(=O)c2ccc3cc(OC4CCCC4)ccc3c2)C(F)(F)c2ccc(-c3ccc(Cl)s3)cc2)CC1 [Compound 112-1, (R)—N-(3-(4-aminopiperidin-1-yl)-1-(4-(5-chlorothiophen-2-yl)phenyl)-1,1-difluoro-3-oxopropan-2-yl)-6-(cyclopentyloxy)naphthalene-2-sulfonamide trifluoroacetate]",< 1
9,"NC1CCN(C(=O)[C@H](NS(=O)(=O)c2ccc3cc(OC4CCCC4)ccc3c2)C(F)(F)c2ccc(-c3ccc(Cl)s3)cc2)CC1 [Compound 112-2, (S)—N-(3-(4-aminopiperidin-1-yl)-1-(4-(5-chlorothiophen-2-yl)phenyl)-1,1-difluoro-3-oxopropan-2-yl)-6-(cyclopentyloxy)naphthalene-2-sulfonamide trifluoroacetate]",1 to 10
10,"NC1CC2CCC(C1)N2C(=O)[C@@H](NS(=O)(=O)c1ccc(OCC2CCCCC2)cc1)C(F)(F)c1cccc(Oc2ccccc2)c1 (stereo partly drawn) [Compound 113-1, N-((2R)-3-(3-amino-8-azabicyclo[3.2.1]octan-8-yl)-1,1-difluoro-3-oxo-1-(3-phenoxyphenyl)propan-2-yl)-4-(cyclohexylmethoxy)benzenesulfonamide trifluoroacetate]",< 1
11,"NC1CC2CCC(C1)N2C(=O)[C@H](NS(=O)(=O)c1ccc(OCC2CCCCC2)cc1)C(F)(F)c1cccc(Oc2ccccc2)c1 (stereo partly drawn) [Compound 113-2, N-((2S)-3-(3-amino-8-azabicyclo[3.2.1]octan-8-yl)-1,1-difluoro-3-oxo-1-(3-phenoxyphenyl)propan-2-yl)-4-(cyclohexylmethoxy) benzenesulfonamide trifluoroacetate]",1 to 10
12,"CCOc1ccc(C(F)(F)[C@@H](C(=O)N2C3CCC2CC(N)C3)N(C)S(=O)(=O)c2ccc3cc(OC4CCCC4)ccc3c2)cc1 (stereo partly drawn) [Compound 114-1, N-((2R)-3-(3-amino-8-azabicyclo[3.2.1]octan-8-yl)-1-(4-ethoxyphenyl)-1,1-difluoro-3-oxopropan-2-yl)-6-(cyclopentyloxy)-N-methylnaphthalene-2-sulfonamide]",1 to 10
13,"CCOc1ccc(C(F)(F)[C@H](C(=O)N2C3CCC2CC(N)C3)N(C)S(=O)(=O)c2ccc3cc(OC4CCCC4)ccc3c2)cc1 (stereo partly drawn) [Compound 114-2, N-((2S)-3-(3-amino-8-azabicyclo[3.2.1]octan-8-yl)-1-(4-ethoxyphenyl)-1,1-difluoro-3-oxopropan-2-yl)-6-(cyclopentyloxy)-N-methylnaphthalene-2-sulfonamide]",10 to 30
14,"CN([C@H](C(=O)N1C2CCC1CC(N)C2)C(F)(F)c1ccc(OCCN2CCOCC2)cc1)S(=O)(=O)c1ccc2cc(OC3CCCC3)ccc2c1 (stereo partly drawn) [Compound 115-1, N-((2R)-3-(3-amino-8-azabicyclo[3.2.1]octan-8-yl)-1,1-difluoro-1-(4-(2-morpholinoethoxy)phenyl)-3-oxopropan-2-yl)-6-(cyclopentyloxy)-N-methylnaphthalene-2-sulfonamide]",1 to 10
15,"CN([C@@H](C(=O)N1C2CCC1CC(N)C2)C(F)(F)c1ccc(OCCN2CCOCC2)cc1)S(=O)(=O)c1ccc2cc(OC3CCCC3)ccc2c1 (stereo partly drawn) [Compound 115-2, N-((2S)-3-(3-amino-8-azabicyclo[3.2.1]octan-8-yl)-1,1-difluoro-1-(4-(2-morpholinoethoxy)phenyl)-3-oxopropan-2-yl)-6-(cyclopentyloxy)-N-methylnaphthalene-2-sulfonamide]",10 to 30
16,"CN([C@H](C(=O)N1C2CCC1CC(N)C2)C(F)(F)c1ccc(OCCN2CCCCC2)cc1)S(=O)(=O)c1ccc2cc(OC3CCCC3)ccc2c1 (stereo partly drawn) [Compound 116-1, N-((2R)-3-(3-amino-8-azabicyclo[3.2.1]octan-8-yl)-1,1-difluoro-3-oxo-1-(4-(2-(piperidin-1-yl)ethoxy)phenyl)propan-2-yl)-6-(cyclopentyloxy)-N-methylnaphthalene-2-sulfonamide]",30 to 100
17,"CN([C@@H](C(=O)N1C2CCC1CC(N)C2)C(F)(F)c1ccc(OCCN2CCCCC2)cc1)S(=O)(=O)c1ccc2cc(OC3CCCC3)ccc2c1 (stereo partly drawn) [Compound 116-2, N-((2S)-3-(3-amino-8-azabicyclo[3.2.1]octan-8-yl)-1,1-difluoro-3-oxo-1-(4-(2-(piperidin-1-yl)ethoxy)phenyl)propan-2-yl)-6-(cyclopentyloxy)-N-methylnaphthalene-2-sulfonamide]",30 to 100
